For experiment [1], the system named is ischemia induced by middle cerebral artery occlusion (MCAO). Nature of the experiment: Pretreatment with estrogen compounds before middle cerebral artery occlusion (MCAO) in ovariectomized rats: mortality and ischemic area. Format: in vivo, rat. The following applies: for reduction of ischemic area: 5 mm Silastic tube 24 h prior to MCAO.
Experiment [2] concerns Primary rat brain capillary endothelial cells (BCEC). Nature of the experiment: BCEC mortality under combined anoxia and hypoglycemia, Trypan blue. The following applies: 2 nM; 100 mg % glucose; anoxia 2 hours.
Protocol: Cell media contained 200 mg % or 100 mg % glucose. Culture dishes containing BCEC were placed in either an incubator or a nitrogen filled chamber for two hours. Trypan blue staining was used to distinguish live cells from dead cells. Two cell countings at two different hemacytometer squares were averaged. Mean ±SEM are depicted (n=8.12). *<0.05 vs. corresponding vehicle control.
(§1) Primary rat brain capillary endothelial cells (BCEC) cultures were prepared following the method of Goldstein, J. Neurochemistry vol.
Nitrogen gas was influxed to replace the oxygen inside the chamber. The chamber was sealed and placed in the incubator for four hours for nonhypoglycemic cultures and 2 hours for hypoglycemic cultures.
(§2) Cell mortality was counted using Trypan blue staining method. Cell death percentage was calculated as dead cell/alive cell ×100%.
(§3) Statistical treatment included two-way analysis of variance applied to determine the significance of the difference among the experimental groups. Kruskal-Wallis nonparametric analysis was used for data presented as percentage. […] P<0.05 was considered significant.
Experiment [3] shares this test system. Nature of the experiment: Brain capillary endothelial cell (BCEC) mortality under hypoglycemia, Trypan blue. The following applies: 2 nM.
Protocol: The control consists of the ethanol vehicle only. The glucose concentrations in the cell media were adjusted from 20 mg % to 200 mg % by adding appropriate amount of D-(+)-glucose to the glucose-free media. BCEC were incubated for 24 hours (a) and 48 hours (b). Trypan blue staining was used to distinguish live cells from dead cells. Two cell countings at two different hemacytometer squares were averaged. Mean±SEM are depicted (n=8-12). *p<0.05 vs. corresponding vehicle control.
as §1
Hypoglycemia experiments were undertaken. […] The glucose concentration of the culture media was then adjusted from 20 mg % to 200 mg % by adding appropriate amount of D-(+)-glucose to the glucose-free media and monitored by Glucose and L-Lactate Analyzer (YSI model 2300 STAT plus, YSI, Inc., Yellow Springs, Ohio). The hypoglycemic cultures were maintained for 24 hours or 48 hours prior to staining with Trypan blue.
as §2, §3
Experiment [4] relates to ischemia induced by middle cerebral artery occlusion (MCAO). Nature of the experiment: Post-treatment at 0.5, 1, 2, 3 and 4 hours after MCAO: ischemic lesion volume by TTC staining. It is filed as in vivo, rat. The following applies: iv 100 μg/kg HPCD-complexed 17β-estradiol plus Silastic pellet at 0.5, 1, 2 or 3 hours post-occlusion; 48 hours after MCAO.

These results are taken from patent US20020052353A1, “Methods of prevention and treatment of ischemic damage” (priority 1999, published 2002).

Each structure is given as a SMILES string.

With `C[C@]12CC[C@@H]3c4ccc(O)cc4CC[C@H]3[C@@H]1CC[C@H]2O` [17α-estradiol], the “reduction of ischemic area” value is reported as 55% in experiment [1] (slice C), 66% in experiment [1] (slice D) and 81% in experiment [1] (slice E). Further, the “protective effect in tissue slices (FIG. 3)” value in experiment [1] (sustained subcutaneous delivery initiated 24 hours prior to ischemic event, slices A-E) is reported as “significant protective effect”.

Consider `C[C@]12CC[C@@H]3c4ccc(O)cc4CC[C@H]3[C@@H]1CC[C@@H]2O` [17β-estradiol], for which, in experiment [1] (pretreatment 24 h prior to MCAO, 3 brain slices, sham 25.6±5.7%), the “ischemic area, percent of cross-sectional area of brain sections” value worked out at 9.8±4.0%. The “protective effect in tissue slices (FIG. 2)” value in experiment [1] (sc injection two hours prior to ischemic event, slices A-D) was “significant protective effect”. Moreover, the “protection from cumulative effect of hypoglycemia and anoxia” value in experiment [2] is listed as “effective in protecting”. For the same compound, the “cell loss saved compared with control” value in experiment [3] (media glucose 20 mg %) worked out at 23%; in experiment [3] (media glucose 40 mg %), 28.4%; in experiment [3] (media glucose 100 mg %) it was 35.9%. In experiment [4], the “protection, ischemic lesion volume (TTC staining)” value is “significant protection”.
